Data taken from US10266548B2, “Substituted benzylindazoles for use as Bub1 kinase inhibitors in the treatment of hyperproliferative diseases” (Bayer Intellectual Property GmbH, priority 2011, dated 2019).
Structures can show the parent of a compound that is named as a salt. Where two headings read alike, the source gives them in different places.

Experiments:
HeLa cells = assay: Proliferation assay (HeLa cell line); format: cell-based
Method: Cultivated tumor cells (cells were ordered from ATCC, except HeLa-MaTu and HeLa-MaTu-ADR, which were ordered from EPO-GmbH, Berlin) were plated at a density of 1000 to 5000 cells/well, depending on the growth rate of the respective cell line, in a 96-well multititer plate in 200 μL of their respective growth medium supplemented 10% fetal calf serum. After 24 hours, the cells of one plate (zero-point plate) were stained with crystal violet (see below), while the medium of the other plates was replaced by fresh culture medium (200 μl), to which the test substances were added in various concentrations (0 μM, as well as in the range of 0.001-10 μM; the final concentration of the solvent dimethyl sulfoxide was 0.5%). The cells were incubated for 4 days in the presence of test substances. Cell proliferation was determined by staining the cells with crystal violet: the cells were fixed by adding 20 μl/measuring point of an 11% glutaric aldehyde solution for 15 minutes at room temperature. After three washing cycles of the fixed cells with water, the plates were dried at room temperature. The cells were stained by adding 100 μl/measuring point of a 0.1% crystal violet solution (pH 3.0). After three washing cycles of the stained cells with water, the plates were dried at room temperature. The dye was dissolved by adding 100 μl/measuring point of a 10% acetic acid solution. […] The change of cell number, in percent, was calculated by normalization of the measured values to the aborbtion values of the zero-point plate (=0%) and the absorbtion of the untreated (0 μm) cells (=100%). The IC50 values were determined by means of a 4 parameter fit using the company's own software.

[1] = target: catalytic domain of human Bub1 (amino acids 704-1085) (Homo sapiens (Human), UniProt O43683); assay: Bub1 kinase assay (TR-FRET); format: biochemical; conditions: 10 μM ATP, 1 μM peptide substrate; read-out: Biological Assay 1: Bub1 kinase assay median IC50
catalytic domain of human Bub1 (amino acids 704-1085), sequence (O43683 704-1085): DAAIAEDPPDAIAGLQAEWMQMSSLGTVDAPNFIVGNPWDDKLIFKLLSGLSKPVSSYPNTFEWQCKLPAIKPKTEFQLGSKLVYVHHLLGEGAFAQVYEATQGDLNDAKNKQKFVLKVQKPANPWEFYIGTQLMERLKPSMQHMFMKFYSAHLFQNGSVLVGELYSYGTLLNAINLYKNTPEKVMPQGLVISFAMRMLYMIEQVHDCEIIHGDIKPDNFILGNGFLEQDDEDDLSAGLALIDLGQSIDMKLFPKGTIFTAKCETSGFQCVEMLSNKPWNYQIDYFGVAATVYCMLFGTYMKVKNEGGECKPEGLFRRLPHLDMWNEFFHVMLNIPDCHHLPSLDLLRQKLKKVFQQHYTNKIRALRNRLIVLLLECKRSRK
Method: To this end, 100-fold concentrated compound solutions (in DMSO) were previously prepared by serial dilution (1:3.4) of 2 mM stocks in a clear low volume 384-well source microtiter plate (Greiner Bio-One, Frickenhausen, Germany), from which 50 nl of compounds were transferred into a black low volume test microtiter plate from the same supplier. […] The resulting mixture (5 μl final volume) was incubated at 22° C. during 60 min., and the reaction was stopped by the addition of 5 μl of an aqueous EDTA-solution (50 mM EDTA, in 100 mM HEPES pH 7.5 and 0.2% (w/v) bovine serum albumin) which also contained the TR-FRET detection reagents (0.2 μM streptavidin-XL665 [Cisbio Bioassays, Codolet, France] and 1 nM anti-phosho-Serine antibody [Merck Millipore, cat. #35-001] and 0.4 nM LANCE EU-W1024 labeled anti-mouse IgG antibody [Perkin-Elmer, product no. AD0077, alternatively a Terbium-cryptate-labeled anti-mouse IgG antibody from Cisbio Bioassays can be used]). The stopped reaction mixture was further incubated 1 h at 22° C. in order to allow the formation of complexes between peptides and detection reagents. Subsequently, the amount of product was evaluated by measurement of the resonance energy transfer from the Eu-chelate-antlbody complex recognizing the Phosphoserlne residue to the streptavidin-XL665 bound to the biotin moiety of the peptide. […] IC50 values were calculated by fitting the normalized inhibition data to a 4-parameter logistic equation (Minimum, Maximum, IC50, Hill; Y=Max+(Min−Max)/(1+(X/IC50)Hill)) using a Bayer-proprietary analysis software.

[2] = 4 days, crystal violet, read-out: Biological Assay 2: Proliferation assay (HeLa cell line) median IC50
[3] = Homo sapiens, 96 h, 4 days, crystal violet, read-out: Biological Assay 2: Proliferation assay (HeLa cell line) median IC50
[4] = Homo sapiens, 96 h, read-out: Biological Assay 2: Proliferation assay (HeLa cell line) median IC50

IC50 [1] [µM] | IC50 (HeLa cells; [3]) [µM] | Compound | other results
 |  | CCOc1cc(F)c(Cn2nc(-c3ncc(OCC[S+](C)[O-])c(Nc4ccncc4)n3)c3ccccc32)c(F)c1 (single isomer, unassigned) [Example 36-1, 2-[1-(4-ethoxy-2,6-difluorobenzyl)-1H-indazol-3-yl]-5-[2-(methylsulfinyl)ethoxy]-N-(pyridin-4-yl)pyrimidin-4-amine] | IC50 (HeLa cells; [2]): 3.3 µM
 |  | CCOc1cc(F)c(Cn2nc(-c3ncc(OCC[S+](C)[O-])c(Nc4ccncc4)n3)c3ccccc32)c(F)c1 (single isomer, unassigned) [Example 36-2, 2-[1-(4-ethoxy-2,6-difluorobenzyl)-1H-indazol-3-yl]-5-[2-(methylsulfinyl)ethoxy]-N-(pyridin-4-yl)pyrimidin-4-amine] | IC50 (HeLa cells; [2]): 0.44 µM
 |  | CCOc1cc(F)c(Cn2nc(-c3ncc(OCC[S+](C)[O-])c(Nc4ccncc4)n3)c3ccccc32)c(F)c1 (single isomer, unassigned) [Example 36-3, 2-[1-(4-ethoxy-2,6-difluorobenzyl)-1H-indazol-3-yl]-5-[2-(methylsulfinyl)ethoxy]-N-(pyridin-4-yl)pyrimidin-4-amine] | IC50 (HeLa cells; [2]): 0.43 µM
0.0026 | 3.8 | COc1cnc(-c2nn(Cc3c(Cl)ccc(C)c3F)c3ccccc23)nc1Nc1ccncc1 [Example 2-1-1, 2-[1-(6-chloro-2-fluoro-3-methylbenzyl)-1H-indazol-3-yl]-5-methoxy-N-(pyridin-4-yl)pyrimidin-4-amine] | 
0.0026 | 3.4 | COc1cnc(-c2nn(Cc3c(Cl)ccc(OC)c3F)c3ccccc23)nc1Nc1ccncc1 [Example 2-2-1, 2-[1-(6-chloro-2-fluoro-3-methoxybenzyl)-1H-indazol-3-yl]-5-methoxy-N-(pyridin-4-yl)pyrimidin-4-amine] | 
0.0044 | 3 | COc1cnc(-c2nn(Cc3cc(C)c(C)cc3Cl)c3ccccc23)nc1Nc1ccncc1 [Example 2-3-1, 2-[1-(2-chloro-4,5-dimethylbenzyl)-1H-indazol-3-yl]-5-methoxy-N-(pyridin-4-yl)pyrimidin-4-amine] | 
0.36 | 8.5 | COc1cnc(-c2nn(Cc3ccc(S(F)(F)(F)(F)F)cc3)c3ccccc23)nc1Nc1ccncc1 [Example 2-3-3, 5-methoxy-2-{1-[4-(pentafluoro-λ^6-sulfanyl)benzyl]-1H-indazol-3-yl}-N-(pyridin-4-yl)pyrimidin-4-amine] | 
0.0047 | 3.8 | COc1ccc(Cn2nc(-c3ncc(OC)c(Nc4ccncc4)n3)c3ccccc32)c(Cl)c1 [Example 2-6-1, 2-[1-(2-chloro-4-methoxybenzyl)-1H-indazol-3-yl]-5-methoxy-N-(pyridin-4-yl)pyrimidin-4-amine] | 
 | 9 | CCOc1cc(F)c(Cn2nc(-c3ncc(OCCN4CCOCC4)c(Nc4ccncc4)n3)c3ccccc32)c(F)c1 [Example 4-12, 2-[1-(4-ethoxy-2,6-difluorobenzyl)-1H-indazol-3-yl]-5-[2-(morpholin-4-yl)ethoxy]-N-(pyridin-4-yl)pyrimidin-4-amine] | 
 | 3.9 | CCOc1cc(F)c(Cn2nc(-c3ncc(OCC(=O)N4CC(F)(F)C4)c(Nc4ccncc4)n3)c3ccccc32)c(F)c1 [Example 4-15, 1-(3,3-difluoroazetidin-1-yl)-2-({2-[1-(4-ethoxy-2,6-difluorobenzyl)-1H-indazol-3-yl]-4-(pyridin-4-ylamino)pyrimidin-5-yl}oxy)ethanone] | 
 | 4.4 | CCOc1cc(F)c(Cn2nc(-c3ncc(OCCSC)c(Nc4ccncc4)n3)c3ccccc32)c(F)c1 [Example 4-16, 2-[1-(4-ethoxy-2,6-difluorobenzyl)-1H-indazol-3-yl]-5-[2-(methylsulfanyl)ethoxy]-N-(pyridin-4-yl)pyrimidin-4-amine] | 
 |  | CCOc1cc(F)c(Cn2nc(-c3ncc(OCCOCCO)c(Nc4ccncc4)n3)c3ccccc32)c(F)c1 [Example 4-17, 2-[2-({2-[1-(4-ethoxy-2,6-difluorobenzyl)-1H-indazol-3-yl]-4-(pyridin-4-ylamino)pyrimidin-5-yl}oxy)ethoxy] ethanol] | IC50 (HeLa cells; [4]): 4.8 µM
 |  | OC[C@@H](O)COc1cnc(-c2nn(Cc3ccccc3F)c3ccccc23)nc1Nc1ccncc1 [Example 15-6, (2R)-3-({2-[1-(2-fluorobenzyl)-1H-indazol-3-yl]-4-(pyridin-4-ylamino)pyrimidin-5-yl}oxy)propane-1,2-diol hydrochloride (1:1)] | IC50 (HeLa cells; read-out: Biological Assay 2: Proliferation assay (HeLa cell line) median IC50, 4 days, crystal violet): ≥ 10 µM
0.94 |  | CCOc1cc(O)c(Cn2nc(-c3ncc(OC)c(Nc4cc(C)nc(C)c4)n3)c3ccccc32)c(F)c1 [Example 24-6, 2-[(3-[4-[(2,6-dimethylpyridin-4-yl)amino]-5-methoxypyrimidin-2-yl}-1H-indazol-1-yl)methyl]-5-ethoxy-3-fluorophenol] | 
2.4 |  | N#Cc1cnccc1Nc1nc(-c2nn(Cc3ccccc3F)c3ccccc23)ncc1Oc1ccncc1C#N [Example 26-2] | 
3.7 |  | COc1cnc(-c2nn(Cc3ccc(C(=O)O)cc3Cl)c3ccccc23)nc1Nc1ccncc1 [Example 28-1, 3-chloro-4-({3-[5-methoxy-4-(pyridin-4-ylamino)pyrimidin-2-yl]-1H-indazol-1-yl}methyl)benzoic acid] | 
4.7 |  | N#Cc1cnc(-c2nn(Cc3ccccc3F)c3ccccc23)nc1Nc1ccncc1 [Example 31-1, 2-[1-(2-fluorobenzyl)-1H-indazol-3-yl]-4-(pyridin-4-ylamino)pyrimidine-5-carbonitrile] | 
0.12 |  | COc1ccc(Cn2nc(-c3ncc(OC)c(Nc4ccnc(C)c4)n3)c3ccccc32)cc1 [Example 34-4, 5-methoxy-2-[1-(4-methoxybenzyl)-1H-indazol-3-yl)-N-(2-methylpyridin-4-yl)pyrimidin-4-amine] | 
1.3 |  | CCOc1cc(F)c(Cn2nc(-c3nccc(N(c4ccncc4)C(F)F)n3)c3ccccc32)c(F)c1 [Example 35-1, N-(difluoromethyl)-2-[1-(4-ethoxy-2,6-difluorobenzyl)-1H-indazol-3-yl]-N-(pyridin-4-yl)pyrimidin-4-amine] | 
 |  | CCOc1cc(F)c(Cn2nc(-c3ncc(OCCN)c(Nc4ccncc4)n3)c3ccccc32)c(F)c1 [Example 38-1, 5-(2-aminoethoxy)-2-[1-(4-ethoxy-2,6-difluorobenzyl)-1H-indazol-3-yl]-N-(pyridin-4-yl)pyrimidin-4-amine] | IC50 (HeLa cells; [4]): 1.4 µM

Compound | IC50 [1] [µM] | IC50 (HeLa cells; [3]) [µM] | other results
COc1cnc(-c2nn(Cc3ccccc3C#N)c3ccccc23)nc1Nc1ccncc1 [Example 2-5-3, 2-({3-[5-methoxy-4-(pyridin-4-ylamino)pyrimidin-2-yl]-1H-indazol-1-yl}methyl) benzonitrile] | 0.021 |  | IC50 (HeLa cells; [4]): ≥ 10 µM
COc1cnc(-c2nn(Cc3cccc4c3OCCCO4)c3ccccc23)nc1Nc1ccncc1 [Example 2-6-3, 2-[1-(3,4-dihydro-2H-1,5-benzo-dioxepin-6-ylmethyl)-1H-indazol-3-yl]-5-methoxy-N-(pyridin-4-yl)pyrimidin-4-amine] | 0.059 |  | IC50 (HeLa cells; [4]): ≥ 10 µM
COc1cnc(-c2nn(Cc3c(F)cccc3F)c3ccccc23)nc1Nc1ccncc1 [Example 2-7-1, 2-[1-(2,6-difluorobenzyl)-1H-indazol-3-yl]-5-methoxy-N-(pyridin-4-yl)pyrimidin-4-amine] | 0.0048 |  | IC50 (HeLa cells; [4]): ≥ 10 µM
COc1cnc(-c2nn(Cc3cccc(SC(F)(F)F)c3)c3ccccc23)nc1Nc1ccncc1 [Example 2-7-3, 5-methoxy-N-(pyridin-4-yl)-2-(1-{3-[(trifluoromethyl)sulfanyl]benzyl}-1H-indazol-3-yl)pyrimidin-4-amine] | 0.43 |  | IC50 (HeLa cells; [4]): ≥ 10 µM
COc1cnc(-c2nn(Cc3c(Cl)ccc(N)c3Cl)c3ccccc23)nc1Nc1ccncc1 [Example 40-1, 2-[1-(3-amino-2,6-dichlorobenzyl)-1H-indazol-3-yl]-5-methoxy-N-(pyridin-4-yl)pyrimidin-4-amine] | 0.039 |  | 
